From patent US20100189675A1, “COSMETIC USE OF AN IMIDOPERCARBOXYLIC ACID DERIVATIVE AS DESQUAMATING AGENT” (L'Oreal, priority 2007, published 2010)

System: corneocytes
Experiment: In vitro test of desquamating efficacy (corneocytes liberated, expressed as protein concentration)
Format: cell-based
Procedure: An in vitro test was carried out in order to determine the efficacy of phthalimidoperoxycaproic acid compared with a composition comprising 30% of glycolic acid and 70% of water. The number of corneocytes liberated is expressed as protein concentration. After applying a composition comprising 17% of phthalimidoperoxycaproic acid, the protein concentration is about 320 μg/ml, while it is about 210 μg/ml for the composition comprising glycolic acid.

O=C(O)CO [glycolic acid, reference compound]
number of corneocytes liberated expressed as protein concentration (composition comprising 30% of glycolic acid and 70% of water): about 210 μg/ml

O=C(CCCCCN1C(=O)c2ccccc2C1=O)OO [phthalimidoperoxycaproic acid]
number of corneocytes liberated expressed as protein concentration (after applying a composition comprising 17% of phthalimidoperoxycaproic acid): about 320 μg/ml | desquamating efficacy compared with reference (compared with glycolic acid (AG) at 30%): high desquamating efficacy greater than the reference glycolic acid
